The text below walks through data of ChEMBL document CHEMBL5393446, “3-(1-oxo-5-(piperidin-4-yl)isoindolin-2-yl)piperidine-2,6-dione derivatives and uses thereof” (2022).

SMILES strings stand for the structures.

The target of this assay is Zinc finger protein Helios (Homo sapiens) (UniProt Q9UKS7). Briefly: Induction of IKZF2 degradation in human GripTite 293 MSR cells at 30 uM incubated for 24 hrs by PathHunter assay relative to control. Type of assay: cell-based.
Sequence of Zinc finger protein Helios (Homo sapiens) (Q9UKS7 whole entry): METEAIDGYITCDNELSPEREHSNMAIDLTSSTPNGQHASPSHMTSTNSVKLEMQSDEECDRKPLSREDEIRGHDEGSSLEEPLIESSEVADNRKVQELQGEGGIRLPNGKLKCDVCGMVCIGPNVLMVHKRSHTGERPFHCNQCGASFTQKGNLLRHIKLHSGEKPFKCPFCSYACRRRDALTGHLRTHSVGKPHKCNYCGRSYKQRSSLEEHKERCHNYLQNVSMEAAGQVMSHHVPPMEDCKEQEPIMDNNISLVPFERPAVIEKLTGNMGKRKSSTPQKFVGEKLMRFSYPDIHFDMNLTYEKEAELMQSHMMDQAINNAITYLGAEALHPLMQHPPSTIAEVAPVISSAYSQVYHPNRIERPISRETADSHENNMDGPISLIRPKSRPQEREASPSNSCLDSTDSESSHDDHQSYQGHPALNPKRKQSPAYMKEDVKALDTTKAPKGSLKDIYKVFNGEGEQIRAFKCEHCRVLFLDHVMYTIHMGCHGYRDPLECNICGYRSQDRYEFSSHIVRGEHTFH

For the compound `CC1CC(c2ccc3c(c2)CN(C2CCC(=O)NC2=O)C3=O)CC(C)N1` (configuration not stated), the Activity came out at 30%.
`CC1CC(c2ccc3c(c2)CN(C2CCC(=O)NC2=O)C3=O)CC(C)N1Cc1ccccc1` (configuration not stated) displayed an Activity of 35%.
